Residues, ends and D or L forms follow the SMILES beside them. *: point of attachment. Caffeoyl = O=C(/C=C/c1ccc(O)c(O)c1)*; Galloyl = O=C(c1cc(O)c(O)c(O)c1)*
Columns and labels:
[1] = cited from earlier work
NIH3T3 cells [2] = assay: β-galactosidase staining assay, UV photoaging model; format: cell-based, Mouse; details: after UV irradiation, 24 h
Excerpt: (§1) Mouse skin fibroblasts (NIH3T3) were purchased from the Shanghai Cell Bank of China Center for Type Culture Collection under the Chinese Academy of Sciences.
• CA, at a test concentration of 1 ppm, 10 ppm, and 100 ppm, respectively; • GA, at a test concentration of 10 ppm; • the reference peptide, at a test concentration of 1 ppm, 10 ppm, and 100 ppm, respectively; • the peptide (2), at a test concentration of 1 ppm, 10 ppm, and 100 ppm, respectively; • the peptide (4) at a test concentration of 10 ppm. 3.
The purpose of this experiment is to test the impact of the peptide derivatives of the present invention on cell senescence using a β-galactosidase staining assay to evaluate the anti-photoaging capability.
(§2) The frozen NIH3T3 cells were cultured and passaged at a ratio of 1:2 to about the 5th generation, and the cells in better growth were selected as experiment subjects.
The cells were inoculated into a 96-well plate at 10,000 cells/well, and when the cells were approximately 80% full, a UV photoaging model was established. In the control group, a PBS solution was added, supplemented with the culture medium to 200 μL, while no UV irradiation was performed; For the UV group and the drug group, a proper amount of PBS was added to wash the culture repeatedly until colorless, followed by adding 50 μL PBS and irradiating under an 80 J/cm^3 UV light. The distance between the light source and the culture bottle was 15 cm. After irradiation, the PBS was removed. In the UV group, a PBS solution and the culture medium were added to 200 μL; in the drug group, the culture medium and the drug diluted in a certain ratio were added to 200 μL. The control group, the UV group, and the drug group were further incubated in a 37° C., 5% CO2 incubator for 24 h. The culture medium was removed. 100 μL 4% paraformaldehyde was added to each well and fixed at room temperature for 15 min, followed by washing with PBS three times, adding a β-galactosidase staining agent (X-gal 0.01%, potassium ferricyanide 0.16%, ferrocyanide potassium 0.02%) 50 μL/well, sealing with plastic wrap, and staining in a 37° C. incubator in the dark for 12 h. The staining solution was removed. Each group was washed with PBS three times, and photographed under a light microscope. The number of cells in the field of view and the number of stained cells were counted.
UV irradiation can cause cell senescence, and the cytoplasm of senescent cells are stained blue-green by the β-galactosidase agent (shown as the dark part in the black and white images). This experiment evaluates the anti-photoaging capability of the peptide derivatives of the present invention through staining morphology images and senescent cell staining statistics.

NIH3T3 cells [3] = assay: ROS staining assay, UV photoaging model; format: cell-based, Mouse; details: after UV irradiation, 24 h, ROS fluorescent probe
Excerpt: as §1
• CA, at a test concentration of 1 ppm; • GA, at a test concentration of 10 ppm; • the reference peptide, at a test concentration of 1 ppm and 10 ppm, respectively; • the peptide (2), at a test concentration of 1 ppm; • the peptide (4), at a test concentration of 10 ppm.
Another indication of aging is an increase in intracellular oxidative stress levels, that is, an increase in ROS, and aging can be slowed down by alleviating oxidative stress. The purpose of this experiment is to test the impact of the peptide derivatives of the present invention on oxidative stress levels using ROS staining assay, thereby evaluating the antioxidant effect.
as §2
The cells were inoculated into a 96-well plate at 10,000 cells/well, and when the cells were approximately 80% full, a UV photoaging model was established. In the control group, a PBS solution was added, supplemented with the culture medium to 200 μL, while no UV irradiation was performed; For the UV group and the drug group, a proper amount of PBS was added to wash the culture repeatedly until colorless, followed by adding 50 μL PBS and irradiating under an 80 J/cm^3 UV light. The distance between the light source and the culture bottle was 15 cm. After irradiation, the PBS was removed. In the UV group, a PBS solution and the culture medium were added to 200 μL; in the drug group, the culture medium and the drug diluted in a certain ratio were added to 200 μL. The control group, the UV group, and the drug group were further incubated in a 37° C., 5% CO2 incubator for 24 h.
The culture medium was removed. Each group was stained according to the ROS probe instructions for 20 min and was observed under a fluorescence microscope.

NIH3T3 cells [4] = assay: Cell proliferation assay (MTT); format: cell-based, Mouse; details: 72 h
Excerpt: as §1
• CA, at a test concentration of 1 ppm, 10 ppm, 100 ppm, and 500 ppm, respectively; • GA, at a test concentration of 1 ppm, 10 ppm, 100 ppm, and 500 ppm, respectively; • the peptide H-Gly-Pro-Gln-Gly-Pro-Gln-NH2 (hereinafter referred to as the reference peptide), at a test concentration of 1 ppm, 10 ppm, 100 ppm, and 500 ppm, respectively; • the peptide (2) CA-Gly-Pro-Gln-Gly-Pro-Gln-NH2, at a test concentration of 1 ppm, 10 ppm, 100 ppm, and 500 ppm, respectively; • the peptide (4) GA-Gly-Pro-Gln-Gly-Pro-Gln-NH2, at a test concentration of 1 ppm, 10 ppm, 100 ppm, and 500 ppm, respectively.
The purpose of this experiment is to evaluate cell viability 72 h after administration and determine the effect of the peptide derivatives of the present invention on cell proliferation by using NIH3T3 cells as the experiment subject.
NIH3T3 cells in good exponential growth phase were taken. A 0.25% trypsin digestion solution was added so that digestion allowed the adherent cells to fall off, counting (1−4)×10^5 cells/mL, which were prepared into a cell suspension.
The cell suspension was inoculated on a 96-well plate with 200 μL/well, and cultured in a constant-temperature CO2 incubator for 24 h.
After changing the medium, the cell suspension was added to drug groups and the control group, respectively, each of which was placed in 20 μL/well and incubated in a 37° C., 5% CO2 incubator for 72 h.
Then 20 μL 5 mg/ml MTT was added to each well and the incubation was continued for 4 h in the 37° C., 5% CO2 incubator. The original solution was removed and 150 μL/well DMSO was added. The plate was placed on a plate shaker for shaking for 5 min. A microplate reader was used to determine the OD value of each well at a wavelength of 570 nm, and calculate the cell viability.
Cell viability=[OD(administration well)−OD(zero adjustment well)]/[OD(control well)−OD(zero adjustment well)]×100%

[5] = test concentrations 1 ppm to 100 ppm
[6] = 500 ppm, compared with the control group

Row | Compound | solubility in cold water [1] | proportion of senescent cells (β-galactosidase staining) (NIH3T3 cells [2]; [5]) | ROS level per unit cells (NIH3T3 cells [3]; 1 ppm) | effect on NIH3T3 cell viability / toxicity (NIH3T3 cells [4]; [6]) | proportion of senescent cells (β-galactosidase staining) (NIH3T3 cells [2]; 10 ppm) | ROS level per unit cells (NIH3T3 cells [3]; 10 ppm) | effect on NIH3T3 cell viability / toxicity (NIH3T3 cells [4]; 100 ppm, compared with the control group) | toxic effect on NIH3T3 cells (NIH3T3 cells [4]; high concentrations) | solubility in water ([1]; water) | effect on NIH3T3 cell viability (NIH3T3 cells [4]; 10 ppm to 500 ppm, compared with the control group)
1 | O=C(O)C=Cc1ccc(O)c(O)c1 [CA, 3,4-dihydroxycinnamic acid] | slightly soluble | unable to reduce the proportion of senescent cells | reduced the ROS level per unit cells to a certain extent | significant toxicity | – | – | – | – | – | –
2 | O=C(O)c1cc(O)c(O)c(O)c1 [GA, 3,4,5-trihydroxybenzoic acid] | insoluble | – | – | significant toxicity | unable to reduce the proportion of senescent cells | had a certain effect in reducing ROS | significant toxicity | – | – | –
3 | NC(=O)CCC(NC(=O)C1CCCN1C(=O)CNC(=O)C(CCC(N)=O)NC(=O)C1CCCN1C(=O)CNC(=O)/C=C/c1ccc(O)c(O)c1)C(N)=O (stereo not drawn) [peptide (2), CA-Gly-Pro-Gln-Gly-Pro-Gln-NH2] (Caffeoyl-GPQGPQ-NH2; configuration not given here) | – | significantly reduced the proportion of senescent cells | significantly reduced the expression of ROS per unit cells | significantly improve cell viability | – | – | – | – | – | –
4 | NC(=O)CCC(NC(=O)C1CCCN1C(=O)CNC(=O)C(CCC(N)=O)NC(=O)C1CCCN1C(=O)CNC(=O)c1cc(O)c(O)c(O)c1)C(N)=O (stereo not drawn) [peptide (4), GA-Gly-Pro-Gln-Gly-Pro-Gln-NH2] (Galloyl-GPQGPQ-NH2; configuration not given here) | – | – | – | – | reduced the proportion of senescent cells | more significantly reduced the expression of ROS per unit cells | – | did not have a toxic effect | – | –
5 | H-Gly-Pro-Gln-Gly-Pro-Gln-NH2 (H-GPQGPQ-NH2) [reference peptide, collagen peptide of EP1406589B1] | – | unable to reduce the proportion of senescent cells | failed to reduce the ROS level per unit cells | – | – | had a certain effect in reducing ROS | – | – | good solubility in water | improved cell viability
